Starred links: 1 amine or outer side, 2 acyl side, 3 side chain; linkers in the order of their positions; H or OH if unused. Positions of bridges follow the written chain, without caps; N, C: chain ends. Residues, ends and D or L forms follow the SMILES beside them. *: point of attachment. 5FAM = O=C1OC2(c3ccc(O)cc3Oc3cc(O)ccc32)c2ccc(C(=O)*)cc21; CH2CONH(CH2)4NHCOCH2 = O=C(C[*:1])NCCCCNC(=O)C[*:2]
How the values were obtained:
[1] = biological target: T1, E3 ubiquitin-protein ligase Mdm2 (Homo sapiens, UniProt Q00987); test: Binding affinity to human MDM2 assessed as dissociation constant in presence of 50 uM p53 peptide by fluorescence polarization assay
[2] = biological target: T1, E3 ubiquitin-protein ligase Mdm2; test: Binding affinity to human MDM2 assessed as dissociation constant by fluorescence polarization assay

T1 sequence (Q00987 whole entry): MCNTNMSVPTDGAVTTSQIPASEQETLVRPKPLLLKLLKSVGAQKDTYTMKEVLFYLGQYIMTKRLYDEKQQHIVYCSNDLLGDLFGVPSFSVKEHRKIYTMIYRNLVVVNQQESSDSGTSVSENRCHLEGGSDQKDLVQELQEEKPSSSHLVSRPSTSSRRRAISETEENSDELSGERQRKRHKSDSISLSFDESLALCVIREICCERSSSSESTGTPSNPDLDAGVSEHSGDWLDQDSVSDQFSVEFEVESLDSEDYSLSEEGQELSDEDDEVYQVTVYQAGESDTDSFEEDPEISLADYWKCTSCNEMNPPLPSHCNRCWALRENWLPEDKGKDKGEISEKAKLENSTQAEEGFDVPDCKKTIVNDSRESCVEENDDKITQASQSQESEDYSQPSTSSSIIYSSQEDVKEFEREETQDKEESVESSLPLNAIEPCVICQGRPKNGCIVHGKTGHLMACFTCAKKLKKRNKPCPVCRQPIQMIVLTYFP

Kd [1] | Kd [2] | Structure (SMILES)
571 µM | 178 µM | CSCC[C@H](NC(=O)[C@H](C)NC(=O)CN)C(=O)N[C@@H](CCC(=O)O)C(=O)N[C@H]1CSCC(=O)NCCCCNC(=O)CSC[C@@H](C(=O)N[C@@H](CCCCN)C(=O)N[C@@H](CCCCN)C(=O)N[C@@H](C)C(=O)NCC(=O)NCC(=O)NCC(=O)NCC(=O)N[C@@H](CCCCNC(=O)c2ccc3c(c2)C(=O)OC32c3ccc(O)cc3Oc3cc(O)ccc32)C(N)=O)NC(=O)[C@H](CCC(=O)O)NC(=O)[C@H](CCCCN)NC(=O)[C@H](CCC(=O)O)NC(=O)[C@H](CCCCN)NC(=O)[C@H](CC(C)C)NC(=O)[C@H](Cc2c[nH]c3ccccc23)NC1=O (H-GAMECWLKEKECKKAGGGGK(5FAM)-NH2; linker 5-12 via CH2CONH(CH2)4NHCOCH2)
436 µM | 195 µM | CSCC[C@H](NC(=O)[C@H](C)NC(=O)CN)C(=O)N[C@@H](CCC(=O)O)C(=O)N[C@@H](CS)C(=O)N[C@@H](Cc1c[nH]c2ccccc12)C(=O)N[C@@H](CC(C)C)C(=O)N[C@@H](CCCCN)C(=O)N[C@@H](CCC(=O)O)C(=O)N[C@@H](CCCCN)C(=O)N[C@@H](CCC(=O)O)C(=O)N[C@@H](CS)C(=O)N[C@@H](CCCCN)C(=O)N[C@@H](CCC(N)=O)C(=O)N[C@@H](C)C(=O)NCC(=O)NCC(=O)NCC(=O)NCC(=O)N[C@@H](CCCCNC(=O)c1ccc2c(c1)C(=O)OC21c2ccc(O)cc2Oc2cc(O)ccc21)C(N)=O (H-GAMECWLKEKECKQAGGGGK(5FAM)-NH2)
– | 140 µM | CSCC[C@H](NC(=O)[C@H](C)NC(=O)CN)C(=O)N[C@@H](CCC(=O)O)C(=O)N[C@H]1CSCC(=O)NCCCCNC(=O)CSC[C@@H](C(=O)N[C@@H](CCCCN)C(=O)N[C@@H](CCC(N)=O)C(=O)N[C@@H](C)C(=O)NCC(=O)NCC(=O)NCC(=O)NCC(=O)N[C@@H](CCCCNC(=O)c2ccc3c(c2)C(=O)OC32c3ccc(O)cc3Oc3cc(O)ccc32)C(N)=O)NC(=O)[C@H](CCC(=O)O)NC(=O)[C@H](CCCCN)NC(=O)[C@H](CCC(=O)O)NC(=O)[C@H](CCCCN)NC(=O)[C@H](CC(C)C)NC(=O)[C@H](Cc2c[nH]c3ccccc23)NC1=O (H-GAMECWLKEKECKQAGGGGK(5FAM)-NH2; linker 5-12 via CH2CONH(CH2)4NHCOCH2)
445 µM | 116 µM | CC[C@H](C)[C@H](NC(=O)[C@H](CCCCN)NC(=O)[C@H](CS)NC(=O)[C@H](CCC(=O)O)NC(=O)[C@H](CCC(N)=O)NC(=O)[C@H](CCC(=O)O)NC(=O)[C@H](CCCCN)NC(=O)[C@H](CC(C)C)NC(=O)[C@H](Cc1c[nH]c2ccccc12)NC(=O)[C@H](CS)NC(=O)[C@H](CCC(=O)O)NC(=O)[C@H](CCSC)NC(=O)[C@H](C)NC(=O)CN)C(=O)N[C@@H](C)C(=O)NCC(=O)NCC(=O)NCC(=O)NCC(=O)N[C@@H](CCCCNC(=O)c1ccc2c(c1)C(=O)OC21c2ccc(O)cc2Oc2cc(O)ccc21)C(N)=O (H-GAMECWLKEQECKIAGGGGK(5FAM)-NH2)
– | 553 µM | CC(C)C[C@H](NC(=O)[C@H](CCC(=O)O)NC(=O)[C@H](CCCCN)NC(=O)[C@H](CC(N)=O)NC(=O)[C@@H](NC(=O)[C@H](CS)NC(=O)[C@H](CCC(=O)O)NC(=O)[C@H](Cc1c[nH]c2ccccc12)NC(=O)[C@H](C)NC(=O)CN)[C@@H](C)O)C(=O)N[C@@H](Cc1c[nH]c2ccccc12)C(=O)N[C@@H](CS)C(=O)N[C@@H](CCCCN)C(=O)N[C@@H](CCC(N)=O)C(=O)N[C@@H](C)C(=O)NCC(=O)NCC(=O)NCC(=O)NCC(=O)N[C@@H](CCCCNC(=O)c1ccc2c(c1)C(=O)OC21c2ccc(O)cc2Oc2cc(O)ccc21)C(N)=O (H-GAWECTNKELWCKQAGGGGK(5FAM)-NH2)
